Assay results published in paper PMC6541369, “Stereo- and regioselective hydroboration of 1-exo-methylene pyranoses: discovery of aryltriazolylmethyl C-galactopyranosides as selective galectin-1 inhibitors” (Beilstein Journal of Organic Chemistry, 2019).
Several values for one entry are separate records, joined by “and”; a condition that tells them apart may be missing. Equal values may be shown once. Read-outs that look alike come from different tables or passages of the source.

Tests used:
Human galectin-1 [1] = biological target: T1, Human galectin-1 (Homo sapiens, UniProt P09382); test: competitive fluorescence polarization assay, galectin-1; format: binding; details: for Kd: galectin-1 0.5 µM, fluorescent probe 20 nM, read-out: Dissociation constant KD ± SEM, galectin-1
T1 construct: made in house
T1 sequence (P09382 whole entry): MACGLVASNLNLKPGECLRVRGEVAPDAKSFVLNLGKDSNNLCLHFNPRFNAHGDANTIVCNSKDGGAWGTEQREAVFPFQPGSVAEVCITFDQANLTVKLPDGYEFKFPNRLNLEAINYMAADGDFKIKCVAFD
Protocol: Galectin-1, -3, -4C (C-terminal CRD), -4N (N-terminal CRD), -7, -8C, -8N, -9C, and -9N affinities for (aryltriazolyl)methyl galactopyranosyls 1a–n were determined in a competitive fluorescence polarization titration assay [[…]].
(§1) Human galectin-1 [36] and galectin-3 [37] were expressed and purified as earlier described. Fluorescence polarization experiments were performed on a PheraStarFS plate reader with software PHERAstar Mars version 2.10 R3 (BMG, Offenburg, Germany). Specific experimental conditions were a galectin-1 concentration of 0.5 µM together with the fluorescent probe (3,3’-dideoxy-3-[4-(fluorescein-5-ylcarbonylaminomethyl)-1H-1,2,3-triazol-1-yl]-3’-(3,5-dimethoxybenzamido)-1,1’-sulfanediyl-di-β-D-galactopyranoside) concentration of 20 nM and a galectin-3 concentration of 0.2 µM together with the fluorescent probe (3,3’-dideoxy-3-[4-(fluorescein-5-ylcarbonylaminomethyl)-1H-1,2,3-triazol-1-yl]-3’-(3,5-dimethoxybenzamido)-1,1’-sulfanediyl-di-β-D-galactopyranoside) concentration of 20 nM, respectively. […] Dissociation constants average and SEM were calculated from two to eight single point measurements showing between 20–80% inhibition.

galectin-3 [2] = biological target: T2, galectin-3 (Homo sapiens, UniProt P17931); test: competitive fluorescence polarization assay, galectin-3; format: binding; details: galectin-3 0.2 µM, fluorescent probe 20 nM; for Kd: read-out: Dissociation constant KD ± SEM, galectin-3
T2 construct: made in house
T2 sequence (P17931 whole entry): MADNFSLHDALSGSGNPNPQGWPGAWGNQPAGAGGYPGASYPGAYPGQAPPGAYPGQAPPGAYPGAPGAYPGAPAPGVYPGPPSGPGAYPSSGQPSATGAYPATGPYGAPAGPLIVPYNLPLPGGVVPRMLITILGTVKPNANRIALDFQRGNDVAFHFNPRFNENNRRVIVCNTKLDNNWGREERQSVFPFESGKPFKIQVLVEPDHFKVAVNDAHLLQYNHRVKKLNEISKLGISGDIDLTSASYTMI
Protocol: Galectin-1, -3, -4C (C-terminal CRD), -4N (N-terminal CRD), -7, -8C, -8N, -9C, and -9N affinities for (aryltriazolyl)methyl galactopyranosyls 1a–n were determined in a competitive fluorescence polarization titration assay [[…]]. Compounds 1a–n had millimolar or higher affinities for all galectins except for galectins-1 and -3. […] Of particular interest is the different difluorinated aryls 1e–g, which show a reversed selectivity pattern. They display twofold preference for galectin-3 (1g), but their poor affinities limit their use as effective galectin-3 inhibitors. […] Monosaccharide derivatives with somewhat higher affinity for galectin-1 are known; dissociation constants down to 62 µM and selectivity of 8 over galectin-3 [34]. However, these inhibitors are larger and carry double modifications with an anomeric thiophenyl aglycon combined with a heteroaryltriazole moiety at galactose C3 that both form affinity and selectivity-enhancing interactions with galectin-1. Unfortunately, attempts to combine the anomeric 4-fluorophenyltriazolylmethyl moiety of compound 1b with such a galactose C3-thiazolyltriazole substituent reported to enhance affinity for galectin-1 [34] failed in our hands, why other additional substituents to combine with the 4-fluorophenyltriazolylmethyl moiety of compound 1b remain to be discovered.
as §1

galectin-3 [3] = biological target: T2, galectin-3; parameters: method as in PMID 15889175; details: reference compounds; read-out: Dissociation constant KD, galectin-3; cited from earlier work
Human galectin-1 [4] = biological target: T1, Human galectin-1; parameters: method as in PMID 15889175; details: reference compounds; read-out: Dissociation constant KD, galectin-1; cited from earlier work
[5] = ratio of galectin-3 KD to galectin-1 KD

Kd (Human galectin-1 [1]) [µM]	Selectivity Galectin-1/3 (Human galectin-1 [1]; [5])	Kd (galectin-3 [2]) [µM]	Dissociation constant KD ± SEM, galectin-3 (galectin-3 [2])	Selectivity Galectin-1/3 (Human galectin-1 [1]; reference compounds, ratio from KD values of ref 35)	SMILES	Kd (galectin-3 [3]) [µM]	Kd (Human galectin-1 [4]) [µM]
600 ± 48	1.5	870 ± 37			OC[C@H]1O[C@H](Cn2cc(-c3ccccc3)nn2)[C@H](O)[C@@H](O)[C@H]1O [1a, 1,2-Dideoxy-1-(4-phenyl-1H-1,2,3-triazol-1-yl)-β-D-galactoheptulose]		
170 ± 2	4 and 4.2	710 ± 36			OC[C@H]1O[C@H](Cn2cc(-c3ccc(F)cc3)nn2)[C@H](O)[C@@H](O)[C@H]1O [1b, 1,2-Dideoxy-1-[4-(4-fluorophenyl)-1H-1,2,3-triazol-1-yl]-β-D-galactoheptulose]		
1200 ± 120	0.6	720 ± 64			OC[C@H]1O[C@H](Cn2cc(-c3cccc(F)c3)nn2)[C@H](O)[C@@H](O)[C@H]1O [1c, 1,2-Dideoxy-1-[4-(3-fluorophenyl)-1H-1,2,3-triazol-1-yl]-β-D-galactoheptulose]		
390 ± 38	1.3	500 ± 23			OC[C@H]1O[C@H](Cn2cc(-c3ccccc3F)nn2)[C@H](O)[C@@H](O)[C@H]1O [1d, 1,2-Dideoxy-1-[4-(2-fluorophenyl)-1H-1,2,3-triazol-1-yl]-β-D-galactoheptulose]		
860 ± 150	0.7	610 ± 160			OC[C@H]1O[C@H](Cn2cc(-c3ccc(F)c(F)c3)nn2)[C@H](O)[C@@H](O)[C@H]1O [1e, 1,2-Dideoxy-1-[4-(3,4-difluorophenyl)-1H-1,2,3-triazol-1-yl]-β-D-galactoheptulose]		
1100 ± 43	0.7	790 ± 48			OC[C@H]1O[C@H](Cn2cc(-c3cc(F)cc(F)c3)nn2)[C@H](O)[C@@H](O)[C@H]1O [1f, 1,2-Dideoxy-1-[4-(3,5-difluorophenyl)-1H-1,2,3-triazol-1-yl]-β-D-galactoheptulose]		
1100 ± 16	0.4	490 ± 55			OC[C@H]1O[C@H](Cn2cc(-c3ccc(F)cc3F)nn2)[C@H](O)[C@@H](O)[C@H]1O [1g, 1,2-Dideoxy-1-[4-(2,4-difluorophenyl)-1H-1,2,3-triazol-1-yl]-β-D-galactoheptulose]		
1000 ± 130	>3	> 3000	undetectable		Cc1ccc(-c2cn(C[C@H]3O[C@H](CO)[C@H](O)[C@H](O)[C@H]3O)nn2)cc1 [1h, 1,2-Dideoxy-1-[4-(4-methylphenyl)-1H-1,2,3-triazol-1-yl]-β-D-galactoheptulose]		
990 ± 23	>3	> 3000	undetectable		Cc1cccc(-c2cn(C[C@H]3O[C@H](CO)[C@H](O)[C@H](O)[C@H]3O)nn2)c1 [1i, 1,2-Dideoxy-1-[4-(3-methylphenyl)-1H-1,2,3-triazol-1-yl]-β-D-galactoheptulose]		
500 ± 59	1.4	700 ± 52			OC[C@H]1O[C@H](Cn2cc(-c3ccc(OC(F)(F)F)cc3)nn2)[C@H](O)[C@@H](O)[C@H]1O [1j, 1,2-Dideoxy-1-[4-(4-trifluoromethoxyphenyl)-1H-1,2,3-triazol-1-yl]-β-D-galactoheptulose]		
240 ± 61	3.5	830 ± 38			OC[C@H]1O[C@H](Cn2cc(-c3ccc(C(F)(F)F)cc3)nn2)[C@H](O)[C@@H](O)[C@H]1O [1k, 1,2-Dideoxy-1-[4-(4-trifluoromethylphenyl)-1H-1,2,3-triazol-1-yl]-β-D-galactoheptulose]		
180 ± 20	2.6	470 ± 95			OC[C@H]1O[C@H](Cn2cc(-c3cccc4ccccc34)nn2)[C@H](O)[C@@H](O)[C@H]1O [1l, 1,2-Dideoxy-1-(4-naphth-1-yl-1H-1,2,3-triazol-1-yl)-β-D-galactoheptulose]		
710 ± 12	1.7	1200 ± 11			OC[C@H]1O[C@@H](Cn2cc(-c3ccc(-c4ccccc4)cc3)nn2)[C@H](O)[C@@H](O)[C@H]1O [1m, 1,2-Dideoxy-1-[4-(4-biphenyl)-1H-1,2,3-triazol-1-yl]-β-D-galactoheptulose]		
1500 ± 290	1.1	1700 ± 190			OC[C@H]1O[C@H](Cn2cc(-c3ccc4ccccc4c3)nn2)[C@H](O)[C@@H](O)[C@H]1O [1n, 1,2-Dideoxy-1-(4-naphth-2-yl-1H-1,2,3-triazol-1-yl)-β-D-galactoheptulose]		
				1.2	CO[C@@H]1O[C@H](CO)[C@@H](O[C@@H]2O[C@H](CO)[C@H](O)[C@H](O)[C@H]2O)[C@H](O)[C@H]1O [compound 12, methyl β-lactoside]	220	190
